Patent publication US10683287B2, “Heterocyclic derivatives and their use in the treatment of neurological disorders” (Novartis AG, priority 2011, dated 2020)

The molecules below were run on Cellular Release of Amyloid Peptide 1-40 (assay: Test 4: Inhibition of Cellular Release of Amyloid Peptide 1-40). Settings: Cricetulus griseus, 24 h; read-out: Amyloid-β1-40 release IC50.
Format: cell-based, Chinese hamster
Method: Chinese hamster ovary cells are transfected with the human gene for amyloid precursor protein. The cells are plated at a density of 8000 cells/well into 96-well microtiter plates and cultivated for 24 hours in DMEM cell culture medium containing 10% FCS. The test compound is added to the cells at various concentrations, and the cells are cultivated for 24 hours in the presence of the test compound.
For `Cc1cc(C#N)cnc1C(=O)Nc1ccc(F)c([C@@]2(C)CO[C@@](C)(C(F)(F)F)C(N)=N2)n1` [Example 12, 5-Cyano-3-methyl-pyridine-2-carboxylic Acid [6-((3S,6R)-5-amino-3,6-dimethyl-6-trifluoromethyl-3,6-dihydro-2H-[1,4]oxazin-3-yl)-5-fluoro-pyridin-2-yl]-amide], the IC50 was 0.28 µM. For `COCCn1ccc2nc(C(=O)Nc3ccc(F)c([C@]4(C)CO[C@@](C)(C(F)(F)F)C(N)=N4)n3)c(N)nc21` [Example 43, 3-Amino-5-(2-methoxy-ethyl)-5H-pyrrolo[2,3-b]pyrazine-2-carboxylic acid [6-((3R,6R)-5-amino-3,6-dimethyl-6-trifluoromethyl-3,6-dihydro-2H-[1,4]oxazin-3-yl)-5-fluoro-pyridin-2-yl]amide], the IC50 was 0.37 µM. `Cc1cc(C#N)cnc1C(=O)Nc1ccc(F)c([C@]2(C)CO[C@@](C)(C(F)(F)F)C(N)=N2)n1` [Example 11, 5-Cyano-3-methyl-pyridine-2-carboxylic Acid [6-((3R,6R)-5-amino-3,6-dimethyl-6-trifluoromethyl-3,6-dihydro-2H-[1,4]oxazin-3-yl)-5-fluoro-pyridin-2-yl]-amide] gave an IC50 of 0.002 µM. Work on `C[C@@]1(c2cccc(NC(=O)c3ccc(Br)cn3)n2)COCC(N)=N1` [Example 1, 5-Bromo-pyridine-2-carboxylic acid [6-((R)-5-amino-3-methyl-3,6-dihydro-2H-[1,4]-oxazin-3-yl)-pyridin-2-yl]-amide] yielded an IC50 of 0.041 µM. `[2H]c1nc(C(=O)Nc2cccc(C3(CF)COCC(N)=N3)n2)c(C([2H])([2H])[2H])c([2H])c1Cl` (stereo not shown) [Example 6, 4,6-Dideutero-5-chloro-3-trideuteromethyl-pyridine-2-carboxylic acid [6-(5-amino-3-fluoromethyl-3,6-dihydro-2H-[1,4]oxazin-3-yl)-pyridin-2-yl]-amide] was tested, and the IC50 was 0.063 µM. `Cc1cc(C#N)cnc1C(=O)Nc1ccc(F)c([C@]2(C(F)F)COCC(N)=N2)n1` [Example 38, 5-Cyano-3-methyl-pyridine-2-carboxylic acid [6-((R)-5-amino-3-difluoromethyl-3,6-dihydro-2H-[1,4]oxazin-3-yl)-5-fluoro-pyridin-2-yl]-amide] gave an IC50 of 0.005 µM. Work on `Cc1cc(OCF)cnc1C(=O)Nc1ccc(F)c([C@]2(C)CO[C@@](C)(C(F)(F)F)C(N)=N2)n1` [Example 32, 5-Fluoromethoxy-3-methyl-pyridine-2-carboxylic acid [6-((3R,6R)-5-amino-3,6-dimethyl-6-trifluoromethyl-3,6-dihydro-2H-[1,4]oxazin-3-yl)-5-fluoro-pyridin-2-yl]amide] yielded an IC50 of 0.026 µM. Work on `C[C@@]1(c2cccc(NC(=O)c3ncc(C#N)cc3N)n2)CO[C@@](C)(C(F)(F)F)C(N)=N1` [Example 19, 3-Amino-5-cyano-pyridine-2-carboxylic acid [6-((3R,6R)-5-amino-3,6-dimethyl-6-trifluoromethyl-3,6-dihydro-2H-[1,4]oxazin-3-yl)-pyridin-2-yl]-amide] yielded an IC50 of 0.048 µM. `C[C@@]1(c2nc(NC(=O)c3nc4ccn(CC(F)F)c4nc3N)ccc2F)CO[C@@](C)(C(F)(F)F)C(N)=N1` [Example 45, 3-Amino-5-(2,2-difluoro-ethyl)-5H-pyrrolo[2,3-b]pyrazine-2-carboxylic acid [6-((3R,6R)-5-amino-3,6-dimethyl-6-trifluoromethyl-3,6-dihydro-2H-[1,4]oxazin-3-yl)-5-fluoro-pyridin-2-yl]-amide] showed an IC50 of 3.6 µM. In the case of `Cc1cc(C#N)cnc1C(=O)Nc1cc([C@]2(C)COC(CF)(CF)C(N)=N2)c(F)cn1` [Example 37, 5-Cyano-3-methyl-pyridine-2-carboxylic acid [4-((R)-5-amino-6,6-bis-fluoromethyl-3-methyl-3,6-dihydro-2H-[1,4]oxazin-3-yl)-5-fluoro-pyridin-2-yl]-amide], the IC50 is reported as 0.083 µM.
